Test systems include HOP-92 NSCLC; SF-295 CNS; A549 NSCLC; COLO 205 colon; HOP-62 NSCLC; MOLT-4 leukemia; K-562 leukemia; MALME-3M melanoma; CAKI-1 renal; OVCAR-5 ovarian.
Common to all, as to experiment: DTP human tumour cell line panel, 48 h

Where “and” joins values, the source holds several entries; their conditions need not be identical. Equal values may be shown once.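 Interpolation was linear, between the two tested concentrations surrounding the appropriate level; five concentrations were tested over 48 hours in 96-well plates. Abbreviation: GI50, concentration required for 50% inhibition of growth. TGI: concentration producing complete growth inhibition.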

On to `O=C(NNC1=NS(=O)(=O)c2ccccc2N1c1ccccc1)c1cnccn1`, for which the GI50 with HOP-92 NSCLC, in the assay on SF-295 CNS, in the assay on A549 NSCLC, with COLO 205 colon, in the assay with HOP-62 NSCLC and in the assay on MOLT-4 leukemia was > 100 µM in each case. Moreover, the GI50 with K-562 leukemia, in the assay on MALME-3M melanoma and in the assay with CAKI-1 renal was > 100 µM each time. In addition, the TGI in the assay on HOP-92 NSCLC, in the assay with SF-295 CNS, in the assay with A549 NSCLC, with COLO 205 colon, with HOP-62 NSCLC and with MOLT-4 leukemia was > 100 µM throughout. Further, the total growth inhibition concentration (TGI) in the assay with K-562 leukemia, in the assay on MALME-3M melanoma and in the assay on CAKI-1 renal was > 100 µM in each case.
`Cc1c(Br)c(Br)c2c3c1nc(N1CCNCC1)n3CCC2`: the GI50 in the assay on HOP-92 NSCLC is 0.0744 µM; with SF-295 CNS it was 1.86 µM; with OVCAR-5 ovarian, 1.72 µM; in the assay with A549 NSCLC, 1.87 µM; in the assay with COLO 205 colon, 1.86 µM; with HOP-62 NSCLC it was 1.87 µM. Besides, the GI50 with K-562 leukemia is 2.14 µM; with MALME-3M melanoma, 1.85 µM; with CAKI-1 renal it was 1.45 µM. In addition, the TGI was found to be 1.12 µM in the assay with HOP-92 NSCLC; 3.68 µM in the assay with SF-295 CNS; 3.54 µM with OVCAR-5 ovarian; 4.01 µM in the assay on A549 NSCLC; 3.63 µM in the assay with COLO 205 colon; 4.87 µM in the assay with HOP-62 NSCLC. In addition, the values for the TGI with K-562 leukemia, in the assay on MALME-3M melanoma and with CAKI-1 renal were 5.49 µM, 3.41 µM and 3.05 µM, respectively.
Take `CCN(CC)CCN1C(=O)c2c(c3c4cccc(Cl)c4n(C4OC(CO)C(OC)C(O)C4O)c3c3[nH]c4c(Cl)cccc4c23)C1=O` (stereo not given): the GI50 with HOP-92 NSCLC was 0.000362 µM; with SF-295 CNS, 0.000169 µM; in the assay on A549 NSCLC it was < 0.0001 µM; in the assay with HOP-62 NSCLC it was 0.000125 µM and < 0.0318 µM and < 0.01 µM; in the assay on MOLT-4 leukemia it was < 0.0001 µM.
For `O=C1CCC2(c3ccccc3)OCC([C@@H](O)c3ccccc3)N12` (stereo not given in full), the TGI in the assay on HOP-92 NSCLC, in the assay on SF-295 CNS, in the assay with OVCAR-5 ovarian, in the assay on A549 NSCLC, with COLO 205 colon and in the assay on HOP-62 NSCLC was > 100 µM in each case. Moreover, the TGI in the assay with K-562 leukemia, in the assay on MALME-3M melanoma and with CAKI-1 renal was > 100 µM in each case.
For `Cc1cc2c(C(C)C)c(O)c(O)c(/C=N/O)c2c(O)c1-c1c(C)cc2c(C(C)C)c(O)c(O)c(/C=N/O)c2c1O`, the GI50 in the assay with HOP-92 NSCLC is 2.89 µM; in the assay with SF-295 CNS, 2.61 µM; with OVCAR-5 ovarian it was 3.08 µM; with A549 NSCLC it was 2.69 µM; in the assay with COLO 205 colon it was 2.88 µM; in the assay with HOP-62 NSCLC, 1.95 µM. Also, the figures for the GI50 in the assay on MOLT-4 leukemia, in the assay on K-562 leukemia and in the assay with MALME-3M melanoma were 2.23 µM, 2.07 µM and 3.91 µM, respectively. In addition, the TGI is 13.5 µM in the assay with HOP-92 NSCLC; 13.3 µM with SF-295 CNS; 12.9 µM in the assay on OVCAR-5 ovarian; 12.1 µM in the assay on A549 NSCLC; 9.72 µM in the assay on COLO 205 colon; 11.4 µM with HOP-62 NSCLC. For the same compound, the TGI came to 7.64 µM in the assay with MOLT-4 leukemia, 5.96 µM in the assay with K-562 leukemia and 20.4 µM in the assay with MALME-3M melanoma.
With `Oc1ccc(I)c2cccnc12`, the TGI is > 100 µM in the assay with HOP-92 NSCLC; 30.1 µM with SF-295 CNS; > 100 µM in the assay with OVCAR-5 ovarian; > 100 µM in the assay on A549 NSCLC; 79 µM with COLO 205 colon; > 100 µM with HOP-62 NSCLC. For the same compound, the TGI with MOLT-4 leukemia was > 100 µM; with K-562 leukemia, 23.8 µM; with MALME-3M melanoma, 61.8 µM.
`O=c1[nH]c(-c2ccccc2)nc2cc([N+](=O)[O-])c(/C(Cl)=C/c3ccccc3)cc12`: the total growth inhibition concentration (TGI) in the assay with HOP-92 NSCLC is 35.6 µM; with SF-295 CNS it was 53.5 µM; with OVCAR-5 ovarian, > 100 µM; in the assay with A549 NSCLC, > 100 µM; with COLO 205 colon it was 79.9 µM; in the assay on MOLT-4 leukemia it was > 100 µM. The TGI in the assay with K-562 leukemia, in the assay on MALME-3M melanoma and with CAKI-1 renal was > 100 µM throughout.
In the case of `Cn1ccc(S(=O)(=O)N2CCC[C@H](Nc3nccc(-c4c(-c5cccc(O)c5)nc5occn45)n3)C2)n1`, the GI50 with HOP-92 NSCLC was 7.64 µM; with SF-295 CNS, 22.3 µM; in the assay with OVCAR-5 ovarian, 24.9 µM; in the assay with A549 NSCLC it was 13.2 µM; with COLO 205 colon, 0.0913 µM; with HOP-62 NSCLC, 31 µM. For the same compound, the GI50 in the assay with MOLT-4 leukemia was 17.4 µM; with K-562 leukemia, 13.9 µM; with CAKI-1 renal, 18 µM. The TGI in the assay with HOP-92 NSCLC is 52.9 µM; in the assay with SF-295 CNS, 62.1 µM; in the assay with OVCAR-5 ovarian, > 100 µM; in the assay with A549 NSCLC, 42.9 µM; in the assay on COLO 205 colon it was 28.6 µM; in the assay on HOP-62 NSCLC it was > 100 µM. The TGI was 63.7 µM with MOLT-4 leukemia, > 100 µM in the assay on K-562 leukemia and 78.1 µM with CAKI-1 renal.
Turning to `CC1CN1c1c(C(=O)/C=C/c2ccc(F)cc2)c(-c2ccccc2)nn(C)c1=O` (stereo not given), the TGI with HOP-92 NSCLC is 23.2 µM; in the assay on SF-295 CNS, 30.2 µM; in the assay on OVCAR-5 ovarian it was 25.2 µM; in the assay on A549 NSCLC, 47.5 µM; with COLO 205 colon, 33 µM; in the assay with HOP-62 NSCLC, 38.9 µM. The TGI is 58.2 µM in the assay with MOLT-4 leukemia and 30 µM in the assay with MALME-3M melanoma.
`COc1cc(C(=O)/C=C/c2cccnc2Nc2ccc(Cl)cc2)cc(OC)c1OC`: the GI50 with HOP-92 NSCLC was 0.519 µM; in the assay on SF-295 CNS, 1.93 µM; with OVCAR-5 ovarian, 1.74 µM; with A549 NSCLC, 1.63 µM; with COLO 205 colon, 1.83 µM; in the assay on HOP-62 NSCLC, 1.65 µM. The GI50 is 2.55 µM in the assay on MOLT-4 leukemia, 1.91 µM in the assay with MALME-3M melanoma and 1.75 µM in the assay with CAKI-1 renal. Besides, the TGI is 2.14 µM in the assay with HOP-92 NSCLC; 3.97 µM with SF-295 CNS; 3.32 µM in the assay on OVCAR-5 ovarian; 3.6 µM in the assay on A549 NSCLC; 3.47 µM in the assay with COLO 205 colon; 3.13 µM in the assay on HOP-62 NSCLC. Besides, the TGI in the assay on MOLT-4 leukemia is 10.5 µM; in the assay with MALME-3M melanoma it was 3.65 µM; in the assay with CAKI-1 renal, 4.04 µM.

As usually defined, the GI50 is the concentration that inhibits growth by half. As usually defined, the TGI is the concentration at which net growth stops. Read a low TGI as greater sensitivity of the cells.

Values taken from PubChem BioAssay (NCI).
